Laboratory results: ChEMBL document CHEMBL1201862, “PubChem BioAssay data set” (2004)
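1) Cells in 96-well plates. 2) Compound, 48 h, 5 concentrations. 3) Linear interpolation between surrounding doses. 4) Unreached endpoint = highest concentration. Abbreviation: GI50, concentration required for 50% inhibition of growth.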 The source made the active and inactive calls. No stated cut-off is given here; in the data, active = GI50 up to about 1.1 µM and inactive = higher.

Legend:
Test in all cases: NCI anticancer screen, dose series, 48 h
[1] = test system: 786-0
[2] = test system: CAKI-1
[3] = test system: K562
[4] = test system: RXF 393
[5] = test system: SF-295
[6] = test system: HCT-15
[7] = test system: MDA-N
[8] = test system: MOLT-4
[9] = test system: OVCAR-8
[10] = test system: SK-MEL-2
[11] = test system: A498
[12] = test system: LOX IMVI
[13] = test system: HT-29
[14] = test system: SN12C
[15] = test system: HOP-62
[16] = test system: NCI/ADR-RES
[17] = test system: ACHN
[18] = test system: Malme-3M
[19] = test system: CCRF-CEM
[20] = test system: SK-MEL-28

| SMILES | GI50 [1] | GI50 [2] | GI50 [3] | GI50 [4] | GI50 [5] | GI50 [6] [µM] | GI50 [7] | GI50 [8] | GI50 [9] | GI50 [10] | GI50 [11] | GI50 [12] | GI50 [13] | GI50 [14] | GI50 [15] | GI50 [16] | GI50 [17] | GI50 [18] | GI50 [19] | GI50 [20] |
| --- | --- | --- | --- | --- | --- | --- | --- | --- | --- | --- | --- | --- | --- | --- | --- | --- | --- | --- | --- | --- |
| COc1cc2nc(-c3ccccc3F)nc(O)c2cc1OC | > 100 µM (inactive) | > 100 µM (inactive) | > 100 µM (inactive) | > 100 µM (inactive) | > 100 µM (inactive) | 49.2 | > 100 µM (inactive) | 70.3 µM (inactive) | > 100 µM (inactive) | > 100 µM (inactive) | > 100 µM (inactive) | > 100 µM (inactive) | 59.4 µM (inactive) | > 100 µM (inactive) | 92.5 µM (inactive) | > 100 µM (inactive) | > 100 µM (inactive) | > 100 µM (inactive) | > 100 µM (inactive) |  |
| COc1cc(/C=C2/SC(c3ccccc3)N(c3cccc([N+](=O)[O-])c3)C2=O)cc(OC)c1OC (stereo not given) | > 100 µM (inactive) | > 100 µM (inactive) | > 100 µM (inactive) | > 100 µM (inactive) | > 100 µM (inactive) | > 100 | 25.1 µM (inactive) | > 100 µM (inactive) | > 100 µM (inactive) | > 100 µM (inactive) | > 100 µM (inactive) | > 100 µM (inactive) |  | > 100 µM (inactive) | > 100 µM (inactive) | > 100 µM (inactive) | > 100 µM (inactive) | 82.8 µM (inactive) | 22.2 µM (inactive) | 55.5 µM (inactive) |
| CCOC(=O)c1cc(C2(O)CCN(Cc3ccccc3)C2=O)c(-c2cc(C)no2)[nH]1 (stereo not given) | 60.3 µM (inactive) | 32.8 µM (inactive) | 27 µM (inactive) | 13.3 µM (inactive) | 25.6 µM (inactive) | 71.3 | 57.3 µM (inactive) | 12.6 µM (inactive) | 37.3 µM (inactive) | 48.8 µM (inactive) | > 100 µM (inactive) | 29.5 µM (inactive) |  | 69 µM (inactive) | 64.7 µM (inactive) | 38.5 µM (inactive) | 45.5 µM (inactive) | > 100 µM (inactive) | 29 µM (inactive) | 59.6 µM (inactive) |
| O=c1[nH]c(=O)n(COCc2ccccc2)c2ccsc12 | > 100 µM (inactive) | > 100 µM (inactive) | 59 µM (inactive) | > 100 µM (inactive) |  | 29.2 | > 100 µM (inactive) | > 100 µM (inactive) | > 100 µM (inactive) | > 100 µM (inactive) | > 100 µM (inactive) | > 100 µM (inactive) | > 100 µM (inactive) | > 100 µM (inactive) | 96.4 µM (inactive) | > 100 µM (inactive) | > 100 µM (inactive) | > 100 µM (inactive) | 60.4 µM (inactive) | > 100 µM (inactive) |
| O=C(c1cccs1)N1CCc2ccccc2C1 | > 100 µM (inactive) | > 100 µM (inactive) | 39.1 µM (inactive) | > 100 µM (inactive) | > 100 µM (inactive) | > 100 | 32.2 µM (inactive) | > 100 µM (inactive) |  | > 100 µM (inactive) | > 100 µM (inactive) | > 100 µM (inactive) | > 100 µM (inactive) | > 100 µM (inactive) | > 100 µM (inactive) | 42.1 µM (inactive) | > 100 µM (inactive) | > 100 µM (inactive) | 40.4 µM (inactive) | > 100 µM (inactive) |
